# In patent US11471469B2 (Lennham Pharmaceuticals, Inc., priority 2020, dated 2022):
# Target: T1, Recombinant CYP19 (aromatase) (Homo sapiens, UniProt P11511)
# T1 sequence (P11511 1-503): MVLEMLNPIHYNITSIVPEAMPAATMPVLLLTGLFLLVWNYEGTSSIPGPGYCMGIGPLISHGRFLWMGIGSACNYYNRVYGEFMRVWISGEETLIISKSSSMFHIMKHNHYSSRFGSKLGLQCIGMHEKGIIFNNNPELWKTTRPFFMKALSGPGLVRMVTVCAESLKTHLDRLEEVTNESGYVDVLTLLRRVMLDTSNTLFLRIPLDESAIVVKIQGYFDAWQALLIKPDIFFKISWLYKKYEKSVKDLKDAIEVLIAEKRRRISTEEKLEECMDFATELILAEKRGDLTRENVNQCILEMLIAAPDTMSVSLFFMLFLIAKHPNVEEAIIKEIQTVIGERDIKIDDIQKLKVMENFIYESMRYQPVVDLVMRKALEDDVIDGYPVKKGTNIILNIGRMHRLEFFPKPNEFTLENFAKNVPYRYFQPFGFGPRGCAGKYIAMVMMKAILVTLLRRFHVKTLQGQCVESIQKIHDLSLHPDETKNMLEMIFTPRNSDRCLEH
# Assay: Metabolic stability in the presence of recombinant CYP19 (aromatase)
# Procedure: The incubation conditions used are described in Table 1.
# The analytical method used is described in Table 2.
# [1] = recombinant human CYP19, compared with testosterone
structure (smiles),measurement,setting,value
"[2H]C([2H])([2H])[C@]12CCC(=O)C=C1CC[C@H]1[C@@H]3CC[C@H](O)[C@@]3(C)CC[C@@H]12 [Testosterone-19-d3, testosterone-19-d3]","half-life (t1/2) in aromatase, times longer than that of non-isotopically enriched testosterone","recombinant human CYP19, 0.5 μM, 4 pmol/ml or 2 μM, 10 pmol/ml, NADPH 1 mM, 0-60 min at 37° C.",4-7 times
same,clearance by aromatase,[1],more resistant to clearance by aromatase
same,metabolic stability in the presence of aromatase,[1],substantially higher stability than testosterone
